# Experimental data reported in ChEMBL document CHEMBL1201861, “Genomics of Drug Sensitity in Cancer screening data, Wellcome Trust Sanger Institute”.
# Key:
# Assay in all cases: cells
# Details in all cases: Homo sapiens
# TE-12 = assay type: functional, cell-based;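 note: growth inhibition of TE-12 cells, read out by a cell viability assay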
# SNB-75 = assay type: functional, cell-based;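 note: cell viability assay measuring growth inhibition of human SNB-75 cells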
# OCI-AML2 = assay type: functional, cell-based;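 note: growth inhibition of OCI-AML2 cells, read out with a cell viability assay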
# SNU1 = assay type: functional, cell-based;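 note: growth inhibition of human NCI-SNU-1 cells, measured with a cell viability assay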
# MHH-PREB-1 = assay type: functional, cell-based;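 note: cell viability assay measuring inhibition of proliferation of human MHH-PREB-1 cells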
# MS-1 = assay type: functional, cell-based
# HuTu80 = assay type: functional, cell-based, HUTU-80;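 note: growth inhibition of HuTu80 human cells, determined with a cell viability readout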
# LS-1034 = assay type: functional, cell-based
# 697 = assay type: functional, cell-based
# RPMI-8866 = assay type: functional, cell-based
# OCUB-M = assay type: functional, cell-based;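 note: growth inhibition of the cancer cell line, read out through a cell viability assay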
# MV4-11 = assay type: functional, cell-based, MV-4-11;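 note: cell viability readout measuring growth inhibition of human MV-4-11 cells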
# EOL1 = assay type: functional, cell-based;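 note: growth inhibition of EoL-1 cells, read out by a cell viability assay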
# no-11 = assay type: functional, cell-based;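 note: growth inhibition of human NO-11 cells, read out with a cell viability assay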
# SK-LMS-1 = assay type: functional, cell-based;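 note: growth inhibition of human SK-LMS-1 cells, read out with a cell viability assay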
# RCC10RGB = assay type: functional, cell-based;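 note: growth inhibition of human RCC10RGB cells, read out by a cell viability assay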
# HC-1 = assay type: functional, cell-based;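 note: growth inhibition of HC-1 cells measured by a cell viability assay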
# A704 = assay type: functional, cell-based;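 note: growth inhibition of human A704 cells, read out with a cell viability assay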
# ECC4 = assay type: functional, cell-based;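 note: growth inhibition of ECC4 cells, read out with a cell viability assay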
# JAR = assay type: functional, cell-based;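 note: growth inhibition of human JAR cells determined with a cell viability assay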
# ES6 = assay type: functional, cell-based;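 note: growth inhibition of human ES6 cells, read out with a cell viability assay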
# C8166 = assay type: functional, cell-based;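 note: growth inhibition of human C8166 cells measured by a cell viability assay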
# NCI-H1155 = assay type: functional, cell-based;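 note: cell growth inhibition measured by a viability assay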
# ML-2 = assay type: functional, cell-based;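 note: growth inhibition of ML-2 cells, measured with a cell viability readout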
# KINGS-1 = assay type: functional, cell-based;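 note: cell viability assay measuring suppression of KINGS-1 cell growth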
# COLO-684 = assay type: functional, cell-based
# AM-38 = assay type: functional, cell-based;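 note: growth inhibition of AM-38 cells of human origin, read out by a cell viability assay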
# QIMR-WIL = assay type: functional, cell-based;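 note: growth inhibition of QIMR-WIL cells, read out with a cell viability assay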
# RS4-11 = assay type: functional, cell-based;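 note: growth inhibition of RS4-11 cells, read out by a cell viability assay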
# SW982 = assay type: functional, cell-based;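 note: growth inhibition of SW982 cells, read out with a cell viability assay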
# IST-SL1 = assay type: functional, cell-based;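 note: growth inhibition of human IST-SL1 cells, read out with a cell viability assay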
# Calu-6 = assay type: functional, cell-based;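 note: growth of human Calu-6 cells, read out by a cell viability assay, IC50 marking inhibition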
# SF-126 = assay type: functional, cell-based;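 note: growth inhibition of human SF126 cells, read out with a cell viability assay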
# NCI-H1770 = assay type: functional, cell-based;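 note: growth inhibition of NCI-H1770 cells determined with a viability readout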
# LB2518-MEL = assay type: functional, cell-based;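 note: growth inhibition of human LB2518-MEL cells, measured with a cell viability assay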
# SW 962 = assay type: functional, cell-based;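 note: growth inhibition of human SW962 cells, read out by a cell viability assay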
# SF-268 = assay type: functional, cell-based;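 note: growth inhibition of SF-268 cells determined with a cell viability assay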
# KM12 = assay type: functional, cell-based;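 note: KM12 cell growth inhibition, read out with a cell viability assay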
# GB-1 = assay type: functional, cell-based;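 note: growth of GB-1 cells judged by a viability assay, IC50 marks the concentration inhibiting growth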
# NCI-H1838 = assay type: functional, cell-based;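 note: growth inhibition of NCI-H1838 cells, determined with a cell viability readout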
# A498 = assay type: functional, cell-based;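 note: growth inhibition of human A498 cells, read out with a cell viability assay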
# NCI-H1355 = assay type: functional, cell-based;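 note: growth inhibition of human NCI-H1355 cells, read out by a cell viability assay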
# LB831-BLC = assay type: functional, cell-based;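 note: growth inhibition of LB831-BLC cells, read out with a cell viability assay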
# HD-MY-Z = assay type: functional, cell-based;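 note: growth inhibition of HD-MY-Z cells, read out with a cell viability assay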
# KM-H2 = assay type: functional, cell-based;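 note: growth inhibition of KM-H2 cells, read out by a cell viability assay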
# NB13 = assay type: functional, cell-based;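 note: cell viability readout measuring growth inhibition of human NB13 cells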
# HH = assay type: functional, cell-based
# ES1 = assay type: functional, cell-based;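 note: growth inhibition of ES1 cells, read out with a cell viability assay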
# DB = assay type: functional, cell-based
# CP66-MEL = assay type: functional, cell-based;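 note: growth inhibition of CP66-MEL cells determined in a cell viability assay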
# RPMI-8226 = assay type: functional, cell-based
# GAK = assay type: functional, cell-based
# LAN-6 = assay type: functional, cell-based;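 note: growth inhibition of LAN-6 cells, determined with a cell viability assay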
# MN-60 = assay type: functional, cell-based;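 note: growth inhibition of the MN-60 cell line, determined with a cell viability assay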
# CPC-N = assay type: functional, cell-based;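 note: growth inhibition of CPC-N cells, with a cell viability assay as the readout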
# MDA-MB-157 = assay type: functional, cell-based
# NCI-H1299 = assay type: functional, cell-based;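 note: growth inhibition of human NCI-H1299 cells, read out by a cell viability assay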
# UMC-11 = assay type: functional, cell-based;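 note: growth inhibition of UMC-11 cells, read out with a cell viability assay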
# KYSE-450 = assay type: functional, cell-based;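 note: cell growth inhibition measured by a viability assay in human KYSE-450 cells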
# OVCAR-8 = assay type: functional, cell-based
# NCI-H2052 = assay type: functional, cell-based
# UACC-893 = assay type: functional, cell-based
# JEG-3 = assay type: functional, cell-based
# MDA-MB-453 = assay type: functional, cell-based
# NCI-H1563 = assay type: functional, cell-based
# MKN-45 = assay type: functional, cell-based
smiles,measurement,setting,value
Cc1nc(Nc2ncc(C(=O)Nc3c(C)cccc3Cl)s2)cc(N2CCN(CCO)CC2)n1 [DASATINIB],IC50,TE-12,18.6 nM
same,IC50,SNB-75,44.4 nM
same,IC50,OCI-AML2,> 1280 nM
same,IC50,SNU1,> 1280 nM
same,IC50,MHH-PREB-1,745 nM
same,IC50,MS-1,> 1280 nM
same,IC50,HuTu80,314 nM
same,IC50,LS-1034,> 1280 nM
same,IC50,697,200 nM
same,IC50,RPMI-8866,> 1280 nM
same,IC50,OCUB-M,1040 nM
same,IC50,MV4-11,> 1280 nM
same,IC50,EOL1,< 5 nM
same,IC50,no-11,502 nM
same,IC50,SK-LMS-1,> 1280 nM
same,IC50,RCC10RGB,491 nM
same,IC50,HC-1,> 1280 nM
same,IC50,A704,14.9 nM
same,IC50,ECC4,> 1280 nM
same,IC50,JAR,> 1280 nM
same,IC50,ES6,31.9 nM
same,IC50,C8166,> 1280 nM
same,IC50,NCI-H1155,> 1280 nM
same,IC50,ML-2,> 1280 nM
same,IC50,KINGS-1,167 nM
same,IC50,COLO-684,> 1280 nM
same,IC50,AM-38,> 1280 nM
same,IC50,QIMR-WIL,706 nM
same,IC50,RS4-11,> 1280 nM
same,IC50,SW982,11.1 nM
same,IC50,IST-SL1,> 1280 nM
same,IC50,Calu-6,> 1280 nM
same,IC50,SF-126,354 nM
same,IC50,NCI-H1770,> 1280 nM
same,IC50,LB2518-MEL,142 nM
same,IC50,SW 962,113 nM
same,IC50,SF-268,174 nM
same,IC50,KM12,> 1280 nM
same,IC50,GB-1,21.6 nM
same,IC50,NCI-H1838,> 1280 nM
same,IC50,A498,72.8 nM
same,IC50,NCI-H1355,110 nM
same,IC50,LB831-BLC,46.1 nM
same,IC50,HD-MY-Z,> 1280 nM
same,IC50,KM-H2,> 1280 nM
same,IC50,NB13,> 1280 nM
same,IC50,HH,> 1280 nM
same,IC50,ES1,> 1280 nM
same,IC50,DB,> 1280 nM
same,IC50,CP66-MEL,195 nM
same,IC50,RPMI-8226,> 1280 nM
same,IC50,LAN-6,> 1280 nM
same,IC50,MN-60,> 1280 nM
same,IC50,CPC-N,> 1280 nM
C[C@]12O[C@H](C[C@]1(O)CO)n1c3ccccc3c3c4c(c5c6ccccc6n2c5c31)CNC4=O [LESTAURTINIB],IC50,TE-12,> 2000 nM
same,IC50,SNB-75,1490 nM
same,IC50,OCI-AML2,1070 nM
same,IC50,SNU1,183 nM
same,IC50,MHH-PREB-1,27.2 nM
same,IC50,MS-1,> 2000 nM
same,IC50,HuTu80,649 nM
same,IC50,LS-1034,> 2000 nM
same,IC50,697,26.5 nM
same,IC50,RPMI-8866,123 nM
same,IC50,OCUB-M,> 2000 nM
same,IC50,MV4-11,< 7.81 nM
same,IC50,EOL1,8.69 nM
same,IC50,no-11,> 2000 nM
same,IC50,SK-LMS-1,> 2000 nM
same,IC50,MDA-MB-157,276 nM
same,IC50,RCC10RGB,> 2000 nM
same,IC50,HC-1,922 nM
same,IC50,A704,967 nM
same,IC50,NCI-H1299,925 nM
same,IC50,JAR,9.94 nM
same,IC50,UMC-11,1120 nM
same,IC50,KYSE-450,> 2000 nM
same,IC50,ES6,> 2000 nM
same,IC50,C8166,> 2000 nM
same,IC50,OVCAR-8,753 nM
same,IC50,NCI-H1155,912 nM
same,IC50,ML-2,195 nM
same,IC50,KINGS-1,547 nM
same,IC50,COLO-684,853 nM
same,IC50,AM-38,> 2000 nM
same,IC50,NCI-H2052,488 nM
same,IC50,QIMR-WIL,94.1 nM
same,IC50,RS4-11,61.9 nM
same,IC50,SW982,42.5 nM
same,IC50,UACC-893,> 2000 nM
same,IC50,IST-SL1,112 nM
same,IC50,Calu-6,> 2000 nM
same,IC50,SF-126,273 nM
same,IC50,NCI-H1770,> 2000 nM
same,IC50,LB2518-MEL,405 nM
same,IC50,SW 962,154 nM
same,IC50,JEG-3,730 nM
same,IC50,SF-268,326 nM
same,IC50,MDA-MB-453,1910 nM
same,IC50,KM12,37.8 nM
same,IC50,GB-1,238 nM
same,IC50,NCI-H1838,> 2000 nM
same,IC50,A498,221 nM
same,IC50,NCI-H1355,> 2000 nM
same,IC50,LB831-BLC,> 2000 nM
same,IC50,HD-MY-Z,13.9 nM
same,IC50,KM-H2,> 2000 nM
same,IC50,NB13,469 nM
same,IC50,HH,506 nM
same,IC50,ES1,95.3 nM
same,IC50,DB,802 nM
same,IC50,CP66-MEL,> 2000 nM
same,IC50,RPMI-8226,386 nM
same,IC50,LAN-6,> 2000 nM
same,IC50,MN-60,372 nM
same,IC50,NCI-H1563,> 2000 nM
same,IC50,MKN-45,1120 nM
